# Experimental data published in patent publication US8765960B2, “6-((S)-1- {1-[5-(2-hydroxy-ethoxy)-pyridin-2-yl]-1H-pyrazol-3-YL}-ethyl)-3H-1,3-benzothiazol-2-one as a tarp-gamma 8 dependent AMPA receptor antagonist” (Eli Lilly and Company, priority 2012, dated 2014).
# Tests used:
# [1] = biological target: T1, TARP γ2 dependent GluA1 flop receptors (Homo sapiens, UniProt P42261+Q9Y698); experiment: FLIPR antagonist functional assay, GluA1 flop co-expressed with TARP γ-2 in CHO-S cells; format: cell-based; conditions: did not inhibit, assay limit 9260 nM
# T1 construct: expressed in transfected cells; host or cells: CHO-S (Invitrogen), transient transfection
# T1 sequence (P42261 19-906): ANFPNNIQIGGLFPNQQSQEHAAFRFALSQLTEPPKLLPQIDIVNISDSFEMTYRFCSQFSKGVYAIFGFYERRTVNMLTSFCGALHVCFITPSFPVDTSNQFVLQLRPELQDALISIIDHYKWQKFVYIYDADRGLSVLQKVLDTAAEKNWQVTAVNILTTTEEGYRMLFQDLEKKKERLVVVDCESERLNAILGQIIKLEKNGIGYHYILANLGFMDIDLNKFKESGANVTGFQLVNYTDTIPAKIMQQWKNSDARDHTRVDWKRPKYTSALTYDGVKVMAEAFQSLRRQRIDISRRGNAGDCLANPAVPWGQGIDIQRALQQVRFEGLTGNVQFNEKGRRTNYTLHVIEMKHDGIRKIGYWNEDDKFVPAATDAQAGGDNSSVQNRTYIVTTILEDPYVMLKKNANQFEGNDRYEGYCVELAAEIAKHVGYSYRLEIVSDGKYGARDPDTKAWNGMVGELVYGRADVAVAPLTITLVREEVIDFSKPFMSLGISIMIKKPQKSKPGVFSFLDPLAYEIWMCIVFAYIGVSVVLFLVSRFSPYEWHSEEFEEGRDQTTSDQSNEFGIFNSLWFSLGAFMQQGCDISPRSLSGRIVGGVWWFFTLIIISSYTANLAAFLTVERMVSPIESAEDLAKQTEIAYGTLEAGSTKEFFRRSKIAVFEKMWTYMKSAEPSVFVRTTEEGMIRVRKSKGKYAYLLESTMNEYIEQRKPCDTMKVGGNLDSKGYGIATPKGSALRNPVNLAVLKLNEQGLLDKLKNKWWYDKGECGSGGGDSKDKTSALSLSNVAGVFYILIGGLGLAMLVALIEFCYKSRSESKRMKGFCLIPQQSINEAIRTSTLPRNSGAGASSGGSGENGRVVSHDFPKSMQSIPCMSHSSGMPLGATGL
# T1 sequence (Q9Y698 whole entry): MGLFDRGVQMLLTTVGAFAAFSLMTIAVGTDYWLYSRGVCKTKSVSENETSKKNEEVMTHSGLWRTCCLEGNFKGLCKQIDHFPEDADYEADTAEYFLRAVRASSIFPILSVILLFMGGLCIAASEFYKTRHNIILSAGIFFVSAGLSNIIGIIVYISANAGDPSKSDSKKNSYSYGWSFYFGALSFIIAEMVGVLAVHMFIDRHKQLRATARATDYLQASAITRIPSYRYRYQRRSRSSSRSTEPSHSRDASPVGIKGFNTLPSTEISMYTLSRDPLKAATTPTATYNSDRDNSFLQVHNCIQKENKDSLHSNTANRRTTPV
# Method: (§1) FLIPR Antagonist Functional Assay
# (§2) Briefly, CHO-S (Invitrogen) cells are grown in suspension in 50/50 custom media to a density of 1×10^7 cells/ml. […]
# formalin induced pain = experiment: Manual formalin induced pain model; format: in vivo, mice; conditions: for % reduction in total time licking: mice
# Method: Manual Formalin Induced Pain Model
# The manual formalin induced pain model is well known for screening compounds for analgesic properties (Mogil J. S. et al., Heritability of nociception I: Responses of 11 inbred mouse strains on 12 measures of nociception. Pain 80 (1999) 67-82). The assay is performed in Plexiglas® boxes approx. 10 cm×10 cm×10 cm in size. A minor placed at the back of the cage allows the unhindered observation of the formalin injected paw. Non-fasted male mice (Harlan (HSD) CD1-Icr) are placed individually in the cubicles at least 60 min. prior to the experiment. All testing is conducted between 08:00 and 16:00 hr. and the testing room temperature is maintained at 21-23° C. Multiple doses of test compound (3, 10 and 30 mg/kg), vehicle (5% DMSO in 10% Acacia, 0.05% antifoam), and a positive control (tramadol 80 mg/kg in 1% HEC, 0.25% Tween 80, 0.05% antifoam) are peripherally administered (p.o.) at varying times before the formalin challenge. Formalin (20 μL of a 5% solution in 0.9% saline) is injected subcutaneously into the plantar surface of the left hind paw with a 27 gauge needle. Observation starts immediately after the formalin injection. Formalin induced pain is quantified by recording the number of seconds each licking event lasts in 5 min. intervals. The pain scoring is measured for 60 min. after the formalin injection. Two phases of pain behavior are observed as previously described (Wheeler-Aceto, H., Porreca, F. and Cowan, A., The rat paw formalin test: comparison of noxious agents, Pain 40 (1990) 229-238.). The early phase starts immediately after the formalin injection and lasts approximately 5 min., followed by the late phase that starts between minutes 10-15 with a maximum response typically observed around 25-40 min after the formalin injection. After the 60 min observation period, animals are sacrificed with CO2 followed by cervical dislocation. Of the different scoring parameters reported for the formalin test, the total time spent licking and biting the injected paw is considered to be most relevant. (Abbott et al., The formalin test: scoring properties of the first and second phases of the pain response in rats, Pain 60 (1995) 91-102; Coderre et al., The formalin test: a validation of the weighted-scores method of the behavioral pain rating, Pain 54 (1993) 43-50).) The early phase score is the sum of time spent licking (seconds) from time 0 to 5 min. The late phase score is obtained by adding the total number of seconds spent licking from minute 15 to min. 55 of the observation period. Data are presented as means with standard errors of means (±SEM). Data are evaluated by one-way analysis of variance (ANOVA) and the appropriate contrasts analyzed by Dunnett “t” test for two sided comparisons. […]
# [2] = biological target: T2, AMPA GluA1 flip isoform devoid of TARP (Homo sapiens, UniProt P42261); experiment: FLIPR antagonist functional assay, GluA1 flip expressed in CHO-S cells without TARP; format: cell-based; conditions: no TARP, did not inhibit, assay limit 9260 nM
# T2 construct: expressed in transfected cells; host or cells: CHO-S (Invitrogen), transient transfection
# T2 sequence (P42261 19-906 isoform P42261-2 limits assumed): as the sequence (P42261 19-906) above, with N740G, N750S, L754V, N760S, G772K, G773D, G774S, D775G counted along it
# Method: as §1, §2
# PTZ induced seizures = experiment: Rat pentylenetetrazole (PTZ)-induced seizure model; format: in vivo
# Excerpt: Rat Pentylenetetrazole (PTZ)-Induced Seizure Model:
# Male Sprague Dawley rats (from Harlan Sprague Dawley. Indianapolis, Ind.), weighing 90-110 grams at time of test, are housed 5 per cage with ad libitum food and water in a large colony room with a standard light cycle (lights on 6 am, lights off 6 pm). Animals are maintained in the colony room for at least 3 days before testing Animals are moved to a quiet room 1 hr. prior to the start of the test. Animals are used only once.
# Animals are removed and dosed with test compound or vehicle (5% DMSO, 10% acacia and 0.05% Dow Corning® 1510-US antifoam), p.o., 10 mL/Kg, and returned to their home cage. Twenty five min. after dosing, animals are placed onto a screen and the screen is inverted 180 degrees to test for motor impairment. The animals are scored 60 sec. after inversion as follows: 0 if the animal climbs over the screen; 1 if the animal is hanging onto the bottom of the screen; 2 if the animal has fallen off the screen. After completing the screen test, animals are dosed S.C. with 35 mg/kg PTZ in saline in a volume of 1 ml/kg. The animals are then placed in an observation cage and observed for 30 min. post PTZ. […] Lethality during the observation period is also recorded. Animals are scored according to the presence of a specific seizure type at any time during the observation period.
# motor impairment = experiment: Inverted screen test for motor impairment (within rat PTZ model); format: in vivo; conditions: rats, 1-10 mg/Kg p.o., 25 min after dosing
# Method: Animals are removed and dosed with test compound or vehicle (5% DMSO, 10% acacia and 0.05% Dow Corning® 1510-US antifoam), p.o., 10 mL/Kg, and returned to their home cage. Twenty five min. after dosing, animals are placed onto a screen and the screen is inverted 180 degrees to test for motor impairment. The animals are scored 60 sec. after inversion as follows: 0 if the animal climbs over the screen; 1 if the animal is hanging onto the bottom of the screen; 2 if the animal has fallen off the screen. After completing the screen test, animals are dosed S.C. with 35 mg/kg PTZ in saline in a volume of 1 ml/kg. The animals are then placed in an observation cage and observed for 30 min. post PTZ. […] Tonic seizure is defined as loss of righting with tonic hindlimb extension. Lethality during the observation period is also recorded. Animals are scored according to the presence of a specific seizure type at any time during the observation period.
# [3] = biological target: T3, TARP γ8 dependent GluA1 flop receptors (Homo sapiens, UniProt P42261+Q8WXS5); experiment: FLIPR antagonist functional assay, GluA1 flop co-expressed with TARP γ-8 in CHO-S cells; format: cell-based; conditions: glutamate 45 μM plus CTZ 20 μM, average±SEM, n=9
# T3 construct: expressed in transfected cells; host or cells: CHO-S (Invitrogen), transient transfection
# T3 sequence (P42261 19-906): as the sequence (P42261 19-906) above
# T3 sequence (Q8WXS5 whole entry): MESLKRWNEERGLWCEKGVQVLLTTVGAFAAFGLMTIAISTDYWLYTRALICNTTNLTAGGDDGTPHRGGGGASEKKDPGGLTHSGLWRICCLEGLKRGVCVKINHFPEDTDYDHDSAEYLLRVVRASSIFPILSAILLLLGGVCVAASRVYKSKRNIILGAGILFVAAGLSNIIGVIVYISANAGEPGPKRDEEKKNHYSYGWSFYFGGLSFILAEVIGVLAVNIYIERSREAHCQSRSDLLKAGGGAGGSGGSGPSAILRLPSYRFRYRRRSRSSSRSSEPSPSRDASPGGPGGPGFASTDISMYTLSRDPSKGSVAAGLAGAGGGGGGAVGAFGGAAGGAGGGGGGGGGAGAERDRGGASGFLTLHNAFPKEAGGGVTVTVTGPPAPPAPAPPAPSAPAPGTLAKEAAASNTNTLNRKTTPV
# Method: as §1, §2
smiles,measurement,setting,value
"C[C@@H](c1ccc2[nH]c(=O)sc2c1)c1ccn(-c2ccc(OCCO)cn2)n1 (single isomer, unassigned) [Example 2]",IC50,[1],> 9.26 µM
same,ED50,"formalin induced pain; Mus musculus, po, male CD1 mice, p.o., derived from dose responses at 3, 10, 30 mg/kg, read-out: ED50, reduction of pain behavior",2.61 mg/kg
same,% reduction in total time licking,formalin induced pain; 3 mg/kg p.o.,53.9%
same,% reduction in total time licking,formalin induced pain; 10 mg/kg p.o.,80.4%
same,% reduction in total time licking,formalin induced pain; 30 mg/kg p.o.,90.0%
same,IC50,[2],> 9.26 µM
same,ED50,"PTZ induced seizures; Rattus norvegicus, male Sprague Dawley rats, p.o., dose range 1-10 mg/Kg, PTZ 35 mg/kg S.C., read-out: estimated ED50, protection against PTZ induced seizures",1.74 mg/kg
same,protection against PTZ induced seizures,"PTZ induced seizures; rats, 10 mg/Kg p.o.",100%
same,motor impairment as measured by the inverted screen test,motor impairment,without any observed motor impairment
same,IC50,[3],0.0745 ± 0.0178 µM
same,inhibition of glutamate plus CTZ activation,[3],about 85.6±0.7%
